“Also recorded” adds a separate entry of the source. Square brackets hold non-standard residues; d marks the D form. Peptide text beside a SMILES is read from it. Dap = NC[C@H](N)C(=O)O
Tests used:
mMC4R = mMC4R (Mus musculus, UniProt P56450); test: AlphaScreen cAMP agonist assay, HEK293 cells stably expressing mMC4R; conditions: for mMC4R agonist activity/efficacy in words: concentrations up to 100 μM, full agonist = >90% maximal NDP-MSH stimulation; for selectivity for the mMC4R over the mMC3R: agonist potency ratio
Sequence of mMC4R (P56450 whole entry): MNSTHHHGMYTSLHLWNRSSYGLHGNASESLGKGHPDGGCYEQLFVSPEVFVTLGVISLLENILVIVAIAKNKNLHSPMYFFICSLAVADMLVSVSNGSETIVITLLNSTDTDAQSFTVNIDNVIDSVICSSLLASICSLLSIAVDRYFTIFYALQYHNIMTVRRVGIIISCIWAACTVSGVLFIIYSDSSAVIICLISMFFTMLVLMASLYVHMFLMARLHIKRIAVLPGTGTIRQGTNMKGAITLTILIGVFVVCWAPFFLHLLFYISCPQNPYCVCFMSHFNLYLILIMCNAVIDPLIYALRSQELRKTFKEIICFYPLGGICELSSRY

mMC1R = mMC1R (Mus musculus, UniProt Q01727); test: AlphaScreen cAMP agonist assay, HEK293 cells stably expressing mMC1R; conditions: for mMC1R agonist activity/efficacy in words: full agonist = >90% maximal NDP-MSH stimulation; for selectivity for the mMC1R over the mMC3R: agonist potency ratio
Sequence of mMC1R (Q01727 whole entry): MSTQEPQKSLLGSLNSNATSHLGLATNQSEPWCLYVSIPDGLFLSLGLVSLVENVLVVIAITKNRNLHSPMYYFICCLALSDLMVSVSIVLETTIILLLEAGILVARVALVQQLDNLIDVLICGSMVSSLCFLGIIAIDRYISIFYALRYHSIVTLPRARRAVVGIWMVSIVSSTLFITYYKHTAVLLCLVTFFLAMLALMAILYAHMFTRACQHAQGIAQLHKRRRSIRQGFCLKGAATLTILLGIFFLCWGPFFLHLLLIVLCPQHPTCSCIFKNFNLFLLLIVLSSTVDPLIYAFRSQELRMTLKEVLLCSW

mMC3R = mMC3R (Mus musculus, UniProt P33033); test: AlphaScreen cAMP agonist assay, HEK293 cells stably expressing mMC3R; conditions: for mMC3R partial agonist, percent maximal NDP stimulation: PA, relative to maximal NDP-MSH response; for mMC3R agonist activity/efficacy in words: concentrations up to 100 μM, full agonist = >90% maximal NDP-MSH stimulation
Sequence of mMC3R (P33033 whole entry): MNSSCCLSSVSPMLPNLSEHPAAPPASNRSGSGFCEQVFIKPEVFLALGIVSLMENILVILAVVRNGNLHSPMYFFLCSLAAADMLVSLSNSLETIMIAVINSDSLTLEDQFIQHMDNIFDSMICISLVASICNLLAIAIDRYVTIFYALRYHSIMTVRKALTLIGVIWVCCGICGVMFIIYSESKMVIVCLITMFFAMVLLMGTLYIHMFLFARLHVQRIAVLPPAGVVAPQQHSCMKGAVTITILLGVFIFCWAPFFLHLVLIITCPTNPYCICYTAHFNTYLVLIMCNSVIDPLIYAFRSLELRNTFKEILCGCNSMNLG

mMC5R = mMC5R (Mus musculus, UniProt P41149); test: AlphaScreen cAMP agonist assay, HEK293 cells stably expressing mMC5R; conditions: for selectivity for the mMC5R over the mMC3R: agonist potency ratio; for mMC5R agonist activity/efficacy in words: concentrations up to 100 μM, full agonist = >90% maximal NDP-MSH stimulation
Sequence of mMC5R (P41149 whole entry): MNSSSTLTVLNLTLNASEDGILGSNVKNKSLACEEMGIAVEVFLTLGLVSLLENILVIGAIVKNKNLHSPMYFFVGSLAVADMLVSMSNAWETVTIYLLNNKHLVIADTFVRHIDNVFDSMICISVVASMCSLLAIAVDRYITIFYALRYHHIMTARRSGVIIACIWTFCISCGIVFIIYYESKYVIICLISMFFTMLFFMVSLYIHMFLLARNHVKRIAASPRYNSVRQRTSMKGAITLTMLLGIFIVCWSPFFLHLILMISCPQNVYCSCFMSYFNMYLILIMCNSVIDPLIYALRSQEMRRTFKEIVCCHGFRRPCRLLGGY

mMC4R agonist activity/efficacy in words (mMC4R) | decreased agonist potency at mMC1R relative to 1 (mMC1R) [fold] | mMC1R agonist activity/efficacy in words (mMC1R) | mMC3R agonist activity/efficacy in words (mMC3R) | selectivity for the mMC5R over the mMC3R (mMC5R) [fold] | Compound | also measured
full agonists | – | – | – | – | C[C@@H]1NC(=O)[C@H](CC(N)=O)NC(=O)[C@H](Cc2c[nH]c3ccccc23)NC(=O)[C@H](CCCNC(=N)N)NC(=O)[C@@H](Cc2ccccc2)NC(=O)[C@H](Cc2c[nH]cn2)NC(=O)[C@@H]2CCCN2C(=O)[C@H]2CCCN2C(=O)[C@H](Cc2ccccc2)NC1=O [Peptide 1, c[Pro-His-DPhe-Arg-Trp-Asn-Ala-Phe-DPro]] (cyclo(H[dF]RWNAF[dP]P)) | –
– | 34 | – | – | – | C[C@@H]1NC(=O)[C@H](CC(N)=O)NC(=O)[C@H](Cc2c[nH]c3ccccc23)NC(=O)[C@H](CCCNC(=N)N)NC(=O)[C@@H](Cc2ccccc2)NC(=O)[C@H](Cc2c[nH]cn2)NC(=O)[C@@H]2CCCN2C(=O)[C@H]2CCCN2C1=O [Peptide 2, c[Pro-His-DPhe-Arg-Trp-Asn-Ala-DPro]] (cyclo(PH[dF]RWNA[dP])) | mMC3R partial agonist, percent maximal NDP stimulation (mMC3R): 85%; decreased agonist potency at mMC4R relative to 1 (mMC4R): 21 fold; decreased agonist potency at mMC5R relative to 1 (mMC5R): 5 fold
– | 140 | – | – | – | N=C(N)NCCC[C@@H]1NC(=O)[C@@H](Cc2ccccc2)NC(=O)[C@H](Cc2c[nH]cn2)NC(=O)[C@@H]2CCCN2C(=O)[C@H]2CCCN2C(=O)[C@H](CC(N)=O)NC(=O)[C@H](Cc2c[nH]c3ccccc23)NC1=O [Peptide 3, c[Pro-His-DPhe-Arg-Trp-Asn-DPro]] (cyclo(PH[dF]RWN[dP])) | mMC3R partial agonist, percent maximal NDP stimulation (mMC3R): 65%; decreased agonist potency at mMC4R relative to 1 (mMC4R): 120 fold; decreased agonist potency at mMC5R relative to 1 (mMC5R): 37 fold
partial agonist | 70 | full agonist | full agonist | – | C[C@@H]1NC(=O)[C@H](CN)NC(=O)[C@H](Cc2c[nH]c3ccccc23)NC(=O)[C@H](CCCNC(=N)N)NC(=O)[C@@H](Cc2ccccc2)NC(=O)[C@H](Cc2c[nH]cn2)NC(=O)[C@@H]2CCCN2C(=O)[C@H]2CCCN2C(=O)[C@H](Cc2ccccc2)NC1=O [Peptide 4, c[Pro-His-DPhe-Arg-Trp-Dap-Ala-Phe-DPro]] (cyclo(PH[dF]RW[Dap]AF[dP])) | mMC4R partial agonist, percent maximal NDP stimulation (mMC4R; PA, relative to maximal NDP-MSH response): 70%
– | – | – | partially stimulated | > 100 | N=C(N)NCCC[C@@H]1NC(=O)[C@@H](Cc2ccccc2)NC(=O)[C@H](Cc2c[nH]cn2)NC(=O)[C@@H]2CCCN2C(=O)[C@H]2CCCN2C(=O)[C@H](CN)NC(=O)[C@H](Cc2c[nH]c3ccccc23)NC1=O [Peptide 6, c[Pro-His-DPhe-Arg-Trp-Dap-DPro]] (cyclo(PH[dF]RW[Dap][dP])) | selectivity for the mMC1R over the mMC3R (mMC1R): > 100 fold; decreased agonist potency at mMC1R relative to 5 (mMC1R; relative to 5): 420 fold; decreased agonist potency at mMC4R relative to 5 (mMC4R; relative to 5): 590 fold; decreased agonist potency at mMC5R relative to 5 (mMC5R; relative to 5): 1,100 fold
– | – | – | partially stimulated | – | N=C(N)NCCC[C@@H]1NC(=O)[C@@H](Cc2ccccc2)NC(=O)[C@H](Cc2c[nH]cn2)NC(=O)[C@@H]2CCCN2C(=O)[C@H]2CCCN2C(=O)[C@H](Cc2c[nH]c3ccccc23)NC1=O [Peptide 7, c[Pro-His-DPhe-Arg-Trp-DPro]] (cyclo(PH[dF]RW[dP])) | –
– | 1140 | full mMC1R agonists | partially stimulated | > 1000 | C[C@@H]1NC(=O)[C@H](CC(N)=O)NC(=O)[C@H](Cc2c[nH]c3ccccc23)NC(=O)[C@H](CCCNC(=N)N)NC(=O)[C@@H](Cc2ccccc2)NC(=O)[C@@H]2CCCN2C(=O)[C@H]2CCCN2C(=O)[C@H](Cc2ccccc2)NC1=O [Peptide 8, c[Pro-DPhe-Arg-Trp-Asn-Ala-Phe-DPro]] (cyclo(P[dF]RWNAF[dP])) | selectivity for the mMC1R over the mMC3R (mMC1R): > 100 fold; selectivity for the mMC4R over the mMC3R (mMC4R): > 300 fold; decreased agonist potency at mMC4R relative to 1 (mMC4R): 90 fold; decreased agonist potency at mMC5R relative to 1 (mMC5R): 90 fold
– | – | full mMC1R agonists | partially stimulated | > 1000 | C[C@@H]1NC(=O)[C@H](CC(N)=O)NC(=O)[C@H](Cc2c[nH]c3ccccc23)NC(=O)[C@H](CCCNC(=N)N)NC(=O)[C@@H](Cc2ccccc2)NC(=O)[C@@H]2CCCN2C(=O)[C@H]2CCCN2C1=O [Peptide 9, c[Pro-DPhe-Arg-Trp-Asn-Ala-DPro]] (cyclo(P[dF]RWNA[dP])) | selectivity for the mMC1R over the mMC3R (mMC1R): > 100 fold
full agonist efficacy | – | partial agonist | partial agonist | – | C[C@@H]1NC(=O)[C@H](CN)NC(=O)[C@H](Cc2c[nH]c3ccccc23)NC(=O)[C@H](CCCNC(=N)N)NC(=O)[C@@H](Cc2ccccc2)NC(=O)[C@@H]2CCCN2C(=O)[C@H]2CCCN2C(=O)[C@H](Cc2ccccc2)NC1=O [Peptide 11, c[Pro-DPhe-Arg-Trp-Dap-Ala-Phe-DPro]] (cyclo(P[dF]RW[Dap]AF[dP])) | mMC5R agonist activity/efficacy in words (mMC5R): full agonist efficacy

Compound | mMC4R agonist activity/efficacy in words (mMC4R) | decreased agonist potency at mMC1R relative to 1 (mMC1R) [fold] | mMC1R agonist activity/efficacy in words (mMC1R) | mMC3R agonist activity/efficacy in words (mMC3R) | selectivity for the mMC5R over the mMC3R (mMC5R) [fold] | also measured
C[C@@H]1NC(=O)[C@H](CN)NC(=O)[C@H](Cc2c[nH]c3ccccc23)NC(=O)[C@H](CCCNC(=N)N)NC(=O)[C@@H](Cc2ccccc2)NC(=O)[C@H](Cc2c[nH]cn2)NC(=O)[C@@H]2CCCN2C(=O)[C@H]2CCCN2C1=O [Peptide 5, c[Pro-His-DPhe-Arg-Trp-Dap-Ala-DPro]] (cyclo(H[dF]RW[Dap]A[dP]P)) | fully stimulate; also recorded: full agonists | – | – | – | > 100 | –
N=C(N)NCCC[C@@H]1NC(=O)[C@@H](Cc2ccccc2)NC(=O)[C@@H]2CCCN2C(=O)[C@H]2CCCN2C(=O)[C@H](CC(N)=O)NC(=O)[C@H](Cc2c[nH]c3ccccc23)NC1=O [Peptide 10, c[Pro-DPhe-Arg-Trp-Asn-DPro]] (cyclo(P[dF]RWN[dP])) | – | – | – | no agonist activity; also recorded: did not possess agonist activity | – | mMC5R agonist activity/efficacy in words (mMC5R): partially stimulated
C[C@@H]1NC(=O)[C@H](CN)NC(=O)[C@H](Cc2c[nH]c3ccccc23)NC(=O)[C@H](CCCNC(=N)N)NC(=O)[C@@H](Cc2ccccc2)NC(=O)[C@@H]2CCCN2C(=O)[C@H]2CCCN2C1=O [Peptide 12, c[Pro-DPhe-Arg-Trp-Dap-Ala-DPro]] (cyclo(P[dF]RW[Dap]A[dP])) | – | – | full agonist efficacy; also recorded: full mMC1R agonists | partially stimulated | > 1000 | selectivity for the mMC4R over the mMC3R (mMC4R): > 300 fold
N=C(N)NCCC[C@@H]1NC(=O)[C@@H](Cc2ccccc2)NC(=O)[C@@H]2CCCN2C(=O)[C@H]2CCCN2C(=O)[C@H](CN)NC(=O)[C@H](Cc2c[nH]c3ccccc23)NC1=O [Peptide 13, c[Pro-DPhe-Arg-Trp-Dap-DPro]] (cyclo(P[dF]RW[Dap][dP])) | partially stimulated | – | – | no observable activity; also recorded: did not possess agonist activity; also recorded: no agonist activity | – | mMC5R agonist activity/efficacy in words (mMC5R): no observable activity; also recorded: unable to stimulate; also recorded: no agonist activity

Source: publication PMC5639694 (Journal of medicinal chemistry, 2017)
